Test results reported in article PMC11640836, “Aminomethylmorpholino Nucleosides as Novel Inhibitors of PARP1 and PARP2: Experimental and Molecular Modeling Analyses of Their Selectivity and Mechanism of Action” (International Journal of Molecular Sciences, 2024).
Where two headings read alike, the source gives them in different places.

Columns and labels:
[1] = biological target: T1, PARP2 (Mus musculus, UniProt O88554); experiment: PARP2 autopoly(ADP-ribosyl)ation (autoPARylation) enzyme assay with [32P]NAD+; type: biochemical, murine
T1 construct: made in house; host or cells: insect cells
Protocol: (§1) Human recombinant poly(ADP-ribose) polymerase 1 (PARP1) and murine poly(ADP-ribose) polymerase 2 (PARP2) were expressed in insect cells and purified as previously described. Radioactively labeled [^32P]NAD^+ was synthesized from [α-^32P]ATP, according to the previously developed method. The reaction of autopoly(ADP-ribosyl)ation was performed as follows. For PARP1, the reaction mixture contained 50 mM of Tris-HCl, a pH of 8.0, 10 mM of MgCl2, 150 mM of NaCl, 7 mM of β-mercaptoethanol, 2 A260/mL of activated DNA, 0.3 mM of [^32P]NAD^+, and 1 of the tested compounds. The reaction was initiated by adding PARP1 up to 200 nM, and the reaction mixtures were incubated at 37 °C for 2 min. For PARP2, the reaction mixture contained 50 mM of Tris-HCl, a pH of 8.0, 3 mM of spermine, 150 mM of NaCl, 7 mM of β-mercaptoethanol, 2 A260/mL of activated DNA, 0.6 mM of [^32P]NAD^+, and 1 of the tested compounds. The reaction was initiated by adding PARP2 up to 800 nM, and the reaction mixtures were incubated at 37 °C for 5 min. The tested compounds were added at six fixed concentrations, specified for each of them. The reaction was stopped by dropping 10 µL aliquots onto Whatman 1 filter papers soaked in 5% trichloroacetic acid (TCA). The filters were washed 4 times with 150 mL of 5% TCA and dried in the air after the removal of TCA with 90% ethanol. The introduction of radioactivity into the reaction product was quantified using a Typhoon FLA 9500 imager (GE Healthcare, Chicago, IL, USA). The half-maximal inhibitory concentration (IC50) values were determined using a six-point concentration response curve in three independent experiments.

[2] = biological target: T2, PARP1 (Homo sapiens, UniProt P09874); experiment: PARP1 autopoly(ADP-ribosyl)ation (autoPARylation) enzyme assay with [32P]NAD+; type: biochemical
T2 construct: made in house; host or cells: insect cells
Protocol: as §1

[3] = biological target: T3, PARP2 (supplemented with HPF1 or not) (Mus musculus, UniProt O88554); experiment: PARP2 inhibition in the absence and presence of HPF1 (automodification, SDS-PAGE); type: biochemical, murine; settings: 500 nM PARP2, 1 µM HPF1
T3 construct: made in house; host or cells: insect cells (PARP2)
Protocol: PARP1/PARP2 autopoly(ADP-ribosyl)ation was performed in a standard 20 μL reaction mixture containing 50 mM of Tris-HCl, a pH of 8.0, 100 mM of NaCl, 10 mM of MgCl2, 1 mM of DTT, 10 µM of [^32P]NAD^+, 1 µM of gap-DNA (a 32-mer duplex with a medially located 1-nucleotide gap), 500 nM of PARP1/PARP2 (supplemented with 1 µM of HPF1 or not), and an inhibitor of interest at concentrations specified in Figure 4 and Figure S7. The reaction was initiated by adding a mixture of [^32P]NAD^+ and DNA to a protein-inhibitor mixture pre-assembled on ice. After incubating the mixtures at 37 °C for the indicated time periods, the reactions were terminated by the addition of an SDS-PAGE sample buffer and heating for 2 min at 90 °C. The reaction products were analyzed using 10% SDS-PAGE with the subsequent phosphor imaging of a Coomassie brilliant blue stained gel. Protein bands labeled with [^32P]ADP-ribose were quantified using Quantity One 4.6.7 Basic software. The residual activity (%) was determined as the level of PARP automodification in the presence of an inhibitor normalized to the respective level in the control sample containing no inhibitor.

[4] = test system: HeLa cell line (cervical cancer); experiment: Cell culture cytotoxicity assay (EZ4U/MTT), compounds alone and combined with hydrogen peroxide; settings: for Effect (H2O2 + PARP inhibitor combo) / Combination index (CI): Hela; for Combination index (CI): CompuSyn; for Combination index (CI) with H2O2, as stated in text: different concentrations of H2O2 and inhibitor, Hela cells
Protocol: The cytotoxicity of the compounds and their combinations with a DNA damaging agent were examined against human cells from the HeLa cell line (cervical cancer) using an EZ4U/MTT colorimetric test (Biomedica, Vienna, Austria). […] The cells were grown in 96-well plates in DMEM medium (Gibco, Thermo Fisher Scientific, Waltham, MA, USA), with 1x GlutaMAX (Gibco, Thermo Fisher Scientific, Waltham, MA, USA), 50 IU/mL penicillin, 50 μg/mL streptomycin (MP Biome-dicals, Santa Ana, CA, USA), and in the presence of 10% fetal bovine serum (Biolot, Saint Petersburg, Russia) in a 5% CO2 atmosphere. After the formation of a 30–50% monolayer, the tested compounds were added to the medium to final concentrations specified in Figure 2 and Figure S4, and the cell culture was monitored for 3 days. […] The combination index (CI) values were calculated using CompuSyn software version 1.0.

[5] = H2O2 150 μM + inhibitor 1000 μM
[6] = H2O2 250 μM + inhibitor 1000 μM

T2 sequence (P09874 whole entry): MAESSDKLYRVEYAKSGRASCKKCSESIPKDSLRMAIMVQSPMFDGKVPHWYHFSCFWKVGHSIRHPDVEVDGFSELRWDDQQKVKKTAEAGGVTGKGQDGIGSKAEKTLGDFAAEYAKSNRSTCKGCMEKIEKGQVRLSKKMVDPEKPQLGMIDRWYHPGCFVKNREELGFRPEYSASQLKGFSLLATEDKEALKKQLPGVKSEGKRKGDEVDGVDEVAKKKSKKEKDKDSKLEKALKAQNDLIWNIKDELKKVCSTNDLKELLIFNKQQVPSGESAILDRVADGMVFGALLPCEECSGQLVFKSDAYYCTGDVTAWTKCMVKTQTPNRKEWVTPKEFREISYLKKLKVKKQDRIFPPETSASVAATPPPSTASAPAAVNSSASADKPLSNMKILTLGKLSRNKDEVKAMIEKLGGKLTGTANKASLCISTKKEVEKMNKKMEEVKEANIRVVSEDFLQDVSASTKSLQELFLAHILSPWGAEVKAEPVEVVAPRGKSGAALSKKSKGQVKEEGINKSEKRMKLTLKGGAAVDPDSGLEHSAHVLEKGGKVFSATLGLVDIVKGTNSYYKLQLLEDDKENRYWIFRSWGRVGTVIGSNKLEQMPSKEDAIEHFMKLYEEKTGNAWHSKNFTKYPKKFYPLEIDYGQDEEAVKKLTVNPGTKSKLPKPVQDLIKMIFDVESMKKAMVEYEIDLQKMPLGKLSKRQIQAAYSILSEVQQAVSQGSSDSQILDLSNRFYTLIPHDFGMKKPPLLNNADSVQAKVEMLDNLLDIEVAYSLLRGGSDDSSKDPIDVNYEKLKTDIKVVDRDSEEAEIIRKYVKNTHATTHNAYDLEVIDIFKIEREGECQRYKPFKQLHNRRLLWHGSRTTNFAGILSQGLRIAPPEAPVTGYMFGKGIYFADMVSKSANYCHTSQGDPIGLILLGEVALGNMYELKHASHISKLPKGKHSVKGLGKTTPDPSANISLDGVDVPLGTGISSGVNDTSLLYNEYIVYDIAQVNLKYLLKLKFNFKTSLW
T1 sequence (O88554 whole entry): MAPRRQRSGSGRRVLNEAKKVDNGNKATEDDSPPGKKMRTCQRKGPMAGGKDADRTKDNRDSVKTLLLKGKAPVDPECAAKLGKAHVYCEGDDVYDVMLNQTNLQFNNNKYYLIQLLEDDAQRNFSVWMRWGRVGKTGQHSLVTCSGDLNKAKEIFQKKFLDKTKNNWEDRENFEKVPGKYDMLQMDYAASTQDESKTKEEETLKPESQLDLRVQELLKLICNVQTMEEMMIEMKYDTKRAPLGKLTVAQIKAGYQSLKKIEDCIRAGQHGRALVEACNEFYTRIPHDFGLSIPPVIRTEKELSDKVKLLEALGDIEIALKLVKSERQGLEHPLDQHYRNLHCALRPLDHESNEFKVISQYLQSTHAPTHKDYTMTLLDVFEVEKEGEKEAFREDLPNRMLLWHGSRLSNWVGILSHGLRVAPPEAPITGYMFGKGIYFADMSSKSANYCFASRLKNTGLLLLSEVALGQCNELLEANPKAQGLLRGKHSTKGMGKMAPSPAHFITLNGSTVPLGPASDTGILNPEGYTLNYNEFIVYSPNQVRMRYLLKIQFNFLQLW
T3 sequence (O88554 whole entry): as above

Structure (SMILES): Cc1cn([C@H]2CNC[C@@H](CN)O2)c(=O)[nH]c1=O [Compound 8]
- IC50 [1]: 133 ± 8 µM
- IC50 [2]: 10 ± 3 µM
- Impact of HPF1 on the inhibition potency against PARP2 [3]: no impact of HPF1
- Effect (H2O2 + PARP inhibitor combo) ([4]; H2O2 30 μM + inhibitor 100 μM): 0.15
- Combination index (CI) ([4]; H2O2 30 μM + inhibitor 100 μM): 2.596
- Effect (H2O2 + PARP inhibitor combo) ([4]; H2O2 30 μM + inhibitor 1000 μM): 0.46
- Combination index (CI) ([4]; H2O2 30 μM + inhibitor 1000 μM): 0.6254
- Effect (H2O2 + PARP inhibitor combo) ([4]; H2O2 50 μM + inhibitor 100 μM): 0.21
- Combination index (CI) ([4]; H2O2 50 μM + inhibitor 100 μM): 1.707
- Effect (H2O2 + PARP inhibitor combo) ([4]; H2O2 50 μM + inhibitor 1000 μM): 0.59
- Combination index (CI) ([4]; H2O2 50 μM + inhibitor 1000 μM): 0.2634
- Effect (H2O2 + PARP inhibitor combo) ([4]; H2O2 90 μM + inhibitor 100 μM): 0.48
- Combination index (CI) ([4]; H2O2 90 μM + inhibitor 100 μM): 0.375
- Effect (H2O2 + PARP inhibitor combo) ([4]; H2O2 90 μM + inhibitor 1000 μM): 0.68
- Combination index (CI) ([4]; H2O2 90 μM + inhibitor 1000 μM): 0.1724
- Effect (H2O2 + PARP inhibitor combo) ([4]; H2O2 150 μM + inhibitor 100 μM): 0.61
- Combination index (CI) ([4]; H2O2 150 μM + inhibitor 100 μM): 0.2716
- Effect (H2O2 + PARP inhibitor combo) [4, 5]: 0.79
- Combination index (CI) [4, 5]: 0.09406
- Effect (H2O2 + PARP inhibitor combo) ([4]; H2O2 250 μM + inhibitor 100 μM): 0.94
- Combination index (CI) ([4]; H2O2 250 μM + inhibitor 100 μM): 0.01519
- Effect (H2O2 + PARP inhibitor combo) [4, 6]: 0.92
- Combination index (CI) [4, 6]: 0.02575
- Combination index (CI) with H2O2, as stated in text [4]: less than one

Structure (SMILES): NC[C@@H]1CNC[C@H](n2cc(I)c(=O)[nH]c2=O)O1 [Compound 14]
- IC50 ([1]; 0.6 mM [32P]NAD+, means ±SDs of three independent experiments, read-out: IC50, PARP2 activity in the autoPARylation reaction): 63 ± 9 µM
- IC50 ([2]; 0.3 mM [32P]NAD+, means ±SDs of three independent experiments, read-out: IC50, PARP1 activity in the autoPARylation reaction): 12 ± 2 µM
- Impact of HPF1 on the inhibition potency against PARP2 [3]: no impact of HPF1
- Effect (H2O2 + PARP inhibitor combo) ([4]; H2O2 30 μM + inhibitor 100 μM): 0.46
- Combination index (CI) ([4]; H2O2 30 μM + inhibitor 100 μM): 0.6331
- Effect (H2O2 + PARP inhibitor combo) ([4]; H2O2 30 μM + inhibitor 1000 μM): 0.3
- Combination index (CI) ([4]; H2O2 30 μM + inhibitor 1000 μM): 0.3003
- Effect (H2O2 + PARP inhibitor combo) ([4]; H2O2 50 μM + inhibitor 100 μM): 0.47
- Combination index (CI) ([4]; H2O2 50 μM + inhibitor 100 μM): 0.5789
- Effect (H2O2 + PARP inhibitor combo) ([4]; H2O2 50 μM + inhibitor 1000 μM): 0.32
- Combination index (CI) ([4]; H2O2 50 μM + inhibitor 1000 μM): 0.2452
- Effect (H2O2 + PARP inhibitor combo) ([4]; H2O2 90 μM + inhibitor 100 μM): 0.6
- Combination index (CI) ([4]; H2O2 90 μM + inhibitor 100 μM): 0.1778
- Effect (H2O2 + PARP inhibitor combo) ([4]; H2O2 90 μM + inhibitor 1000 μM): 0.5
- Combination index (CI) ([4]; H2O2 90 μM + inhibitor 1000 μM): 0.04618
- Effect (H2O2 + PARP inhibitor combo) ([4]; H2O2 150 μM + inhibitor 100 μM): 0.68
- Combination index (CI) ([4]; H2O2 150 μM + inhibitor 100 μM): 0.08158
- Effect (H2O2 + PARP inhibitor combo) [4, 5]: 0.61
- Combination index (CI) [4, 5]: 0.01767
- Effect (H2O2 + PARP inhibitor combo) ([4]; H2O2 250 μM + inhibitor 100 μM): 0.82
- Combination index (CI) ([4]; H2O2 250 μM + inhibitor 100 μM): 0.01487
- Effect (H2O2 + PARP inhibitor combo) [4, 6]: 0.84
- Combination index (CI) [4, 6]: 0.00135
- Combination index (CI) with H2O2, as stated in text [4]: less than one
